Experimental data reported in a melting point compilation (Tetko et al.; mined from patent text by program, amines drawn as free bases though some values may be those of a salt).

Row | melting point | Compound
1 | 301 to 303 °C | CC1CC(=O)NN=C1c1ccc2[nH]c(-c3ccncc3)cc2c1 (configuration not stated)
2 | 176 to 178 °C | Cc1cc(Cl)c(Cl)cc1C(=O)O
3 | 150 to 152 °C | CCOC(=O)c1ccc(N2CCN(CC(=O)c3ccc(Cl)cc3)CC2)cc1
4 | 178 to 180 °C | COc1nccc2c(=O)n(C)c(-c3ccc(OC4CCN(C5CCC5)CC4)cc3)nc12
5 | 125 to 126 °C | COc1cccc(-c2ccc3ccccc3c2Oc2ccc(C=O)cc2)c1
6 | 95.5 to 98 °C | CCCN1CCN(c2nc3ccc(N=CN(C)C)cc3nc2N2CCN(CCC)CC2)CC1
7 | 104 °C | COc1csc(C=CC(=O)c2ccccc2)c1
8 | 178 to 180 °C | O=C(CN1CCC(Cc2ccc(F)cc2)CC1)Nc1ccc2c(c1)CC(=O)N2
9 | 71 to 75 °C | CCCC=Cc1c(C(C)C)nc(C(C)C)c(CO)c1-c1cccc(OC)c1
10 | 187 to 189 °C | Cc1ccc(F)cc1C(=O)Nc1ccc(C(=O)N2Cc3ccccc3Oc3ncccc32)cn1
11 | 158 to 160 °C | CCCS(=O)CC(=O)NNC(=O)N1Cc2ccccc2Oc2ccc(Cl)cc21 (configuration not stated)
12 | 153 °C | CCCCNS(=O)(=O)c1cccc(NC(=O)NS(=O)(=O)c2ccc(C)cc2)c1
13 | 82.5 °C | Cc1ccc(S(=O)(=O)N(Cc2ccccc2)N(C)C(=O)C2CC(S)CN2S(=O)(=O)c2ccc3ccccc3c2)cc1 (configuration not stated)
14 | 153 to 154 °C | CCN(CC)Cc1nc2cc(OC)c(OC)cc2c(-c2ccc(OC)c(OC)c2)c1C(=O)CC(C)C
15 | 152 to 154 °C | COc1ccc2ncccc2c1N
16 | 157 to 158 °C | NC(=S)CCc1ccc([N+](=O)[O-])cc1
17 | 172 to 174 °C | CC(=O)NNC(=O)c1ccccc1
18 | 80 to 82 °C | CC(C)(C)OC(=O)N1CCC(ON=C(c2ccccc2)c2cc3ccncc3[nH]2)C1 (configuration not stated)
19 | 244 to 245 °C | O=c1cnc2c(NC(CO)CO)nc(SCc3cccc(C(F)(F)F)c3F)nc2[nH]1
20 | 150 to 152 °C | c1cncc(CNC2=Nc3ccccc3Nc3ccccc32)c1
21 | 310 to 312 °C | O=c1[nH]c2ccccc2c2c(CCO)n(-c3ccccc3)nc12
22 | 165 °C | CCc1cc2ccccn2c1C(=O)c1ccc(OS(=O)(=O)c2ccc(C)cc2)cc1
23 | 121 °C | CCOC(=O)N=c1ccc(C)cn1Cc1cccc(C(F)(F)F)c1
24 | 226 to 228 °C | COc1ccc(-c2sc3c(c2CBr)c(=O)c(C(C)=O)cn3Cc2ccccc2F)cc1
25 | 173 °C | CCc1cc(C#N)ccc1N1C(=O)C(=O)N(C(C)(C)CC)C1=S
26 | 230 to 232 °C | O=C(c1ccc(O)cc1)c1cc(C(=O)c2ccc(O)cc2)cc([N+](=O)[O-])c1
27 | 47.5 to 49 °C | C#Cc1ccc2ncsc2c1

Further lines, the compound ahead of its results:

Row | Compound | melting point
28 | CC(=O)OC1C(Oc2cc(C)cc(O)c2C(=O)CCc2ccc3occc3c2)OC(CO)C(O)C1O (configuration not stated) | 160 °C
29 | CN(C)c1ccc(CNc2nc(Nc3cccc(NS(C)(=O)=O)c3)nc3[nH]cnc23)cc1 | 138 to 142 °C
30 | Cc1[nH]c2cccc(/C=C/C(=O)OCc3ccccc3)c2c1Cn1ccnc1 | 207 to 208 °C
31 | CC(C)(C)OC(=O)N[C@@H](CCC(=O)OCc1ccccc1)C(=O)OCc1ccccc1 | 73 to 76 °C
32 | COC(=O)CCc1ccc(N2CCN(c3ccc(CCN)cc3)C2=O)cc1 | > 200 °C
33 | CC(COc1ccc(O)c(C(N)=O)c1)NCC(O)c1ccccc1 (configuration not stated) | 152 to 154 °C
34 | Cc1ccc(S(=O)(=O)NCC(=O)c2ccccc2)cc1 | 148 to 149 °C
35 | CSc1cc(C)nc(SC)c1NC(=O)CCCCCCCCSc1nc2ccccc2o1 | 123 to 124 °C
36 | CC(C)(C)OC(=O)N1CCC(O)(CS(=O)(=O)NC(c2ccccc2)c2ccccc2)CC1 | 121 to 123 °C
37 | O=C(O)c1cn(CCc2cccc(Cl)c2)c2cc(C3CC3)nn2c1=O | 230 to 235 °C
38 | COc1ccc2c(c1)Cc1ccccc1C(=O)C2 | 105 to 106 °C
39 | C=CCOc1ccccc1OCC(O)CNCCOc1ccc(O)c(C(N)=O)c1 (configuration not stated) | 147 to 148 °C
40 | Cn1nc(-c2ccccc2O)oc1=O | 160 to 162 °C
41 | Cc1ccc(C(=O)Nc2ccccc2C(CCC(=O)O)=NO)cc1 | 165 to 168 °C
42 | O=C1c2ccccc2-c2[nH]c(=O)c(-c3ccccc3)nc21 | > 300 °C
43 | CC(=O)Oc1ccc(CCc2cc(OC(C)=O)cc(OC(C)=O)c2)cc1 | 52 to 52.5 °C
44 | CC(C)(C)C(OC(=O)Nc1ccccc1)C(=CC1CCCCC1)n1cncn1 (configuration not stated) | 156 °C
45 | CCc1nc2c(C)cc(C)nc2n1-c1ccc(CCNC(=O)NS(=O)(=O)c2ccncc2)cc1 | 228 to 229 °C
46 | CCn1cc(C(=O)O)c(=O)c2ccc(-n3cccc3)cc21 | 235 to 238 °C
47 | CCCCCCCNC(=O)Nc1ccccc1C(=O)NC1CCCNC1 (configuration not stated) | 165 °C
48 | O=C(O)Cc1c(C(=O)c2ccc(Br)cc2)[nH]c2cc(Cl)ccc12 | 199 to 201 °C
49 | CN(C)C=CC(=O)c1ccc(Cl)cc1 | 78.5 to 80.5 °C
50 | COc1ccc(C2CCN(C(N)=O)CC2)cc1OC1CCCC1 | 149 to 150 °C

Row | Compound | melting point
51 | CC(C)n1nc(-c2cc(NC(=O)c3ccccc3)cnc2-c2ccccc2)ccc1=O | 207 to 208 °C
52 | O=c1nc(NCc2ccccc2)sc2c([N+](=O)[O-])cc(C(F)(F)F)cc12 | 192 to 194 °C
53 | CC1Oc2ccc(CN3CCN(CCO)CC3)cc2NC1=O (configuration not stated) | 174 °C
54 | CCCn1c(=O)c2[nH]c(C(C)=Cc3ccccc3)nc2n(CCC)c1=O | 194 to 196 °C
55 | CCCc1c(SCCCCSc2nc3ccc(C(=O)O)cc3[nH]2)ccc(C(C)=O)c1O | 90 to 95 °C
56 | Cc1nc(NCC(C)C)sc1C(=O)c1ccc(Cl)c([N+](=O)[O-])c1 | 138 to 142 °C
57 | Cc1c(Br)c(C#N)nn1C | 92 to 94 °C
58 | OCc1sc2cc(Br)ccc2c1Cl | 117 to 118 °C
59 | CC(C)c1ccc(C(=O)NC/C=C/c2ccccc2)cc1 | 142 °C
60 | COC(=O)CC(NC(=O)CC1CCCCC1)C(C)=O (configuration not stated) | 75 to 76 °C
61 | CC(=O)N(O)Cc1ccc(OCCN(C)c2nc3ccccc3o2)cc1 | 135 to 136 °C
62 | Cc1ccc(-c2ccc3c(c2)C=C(C(=O)NC2CCN(CC4=CCCCCCCC4)CC2)CCO3)cc1 | 128 to 130 °C
63 | O=C(O)c1cnn2c(C(F)(F)F)cc(-c3ccc(F)c(F)c3)nc12 | 274 °C
64 | Cc1ccc(C2(O)C(c3ccccc3)SC3=NCCCCN32)s1 (configuration not stated) | 70 to 90 °C
65 | N#CCNC(=O)C(=O)Oc1ccc([N+](=O)[O-])cc1 | 123 to 124 °C
66 | Cc1nnc2n1-c1ccc(Cl)cc1C(N1CCOCC1)=NC2 | 243 to 253 °C
67 | CC(=O)OC(CCC(C)(C)C)C(C)C1CCC2C3CC=C4CC(O)CCC4(C)C3CCC12C (configuration not stated) | 210 to 212 °C
68 | Cc1ccc(-n2cccc2C=O)c(Cl)c1 | 111 to 112 °C
69 | CCOc1cccc2cc(S(=O)(=O)Nc3ccc(F)c(N)c3)c(=O)oc12 | 160 to 162 °C
70 | NS(=O)(=O)c1cc(S(N)(=O)=O)c(-c2ccccc2)cc1F | 174 to 175 °C
71 | CC(C=CC=C(C)C=CC1=C(C)C(=O)CCC1(C)C)=CC=CC=C(C)C=CC=C(C)C=CC1=C(C)C(=O)CCC1(C)C | 205 to 207 °C
72 | N#Cc1ccc(O)c(I)c1 | 144 to 146 °C
